Experimental data published in patent publication US6914045B2, “Glycopeptide antibiotics” (Wyeth Holdings Corporation, priority 2001, dated 2005).

Key:
Assay in all cases: in vitro antibacterial evaluation, MIC by broth dilution
Assay type in all cases: cell-based
Streptococcus sp. = settings: broth dilution, 18 hours at 35° C.
Summary of the method: (§1)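 MIC = lowest antibiotic concentration preventing visible growth; inoculum 5×10^5 CFU/mL; drug range 64-0.06 μg/mL; Muller-Hinton II […]; NCCLS M7-A2 guidance.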

Staphylococcus sp. = settings: broth dilution, 18 hours at 35° C.
Summary of the method: as §1

Enterococcus sp. = settings: broth dilution, 18 hours at 35° C.
Summary of the method: as §1

Escherichia coli = settings: 18 hours at 35° C.

COc1ccc(COCC2OC(OC3C(CO)OC(Oc4ccc(CC5NC(=O)C(C(C)c6ccccc6)NC(=O)CNC(=O)C(CO)NC(=O)C(C(O)C6CNC(=N)N6C6OC(CO)C(O)C(O)C6O)NC(=O)C(C(O)C6CNC(=N)N6)NC5=O)cc4)C(O)C3O)C(O)C(O)C2O)cc1OCc1ccccc1 (stereo not shown) [Example 239]
<0.06 µg/mL: MIC Streptococcus pneumoniae (ATCC 6301) (Streptococcus sp.) | MIC Streptococcus pneumoniae (GC 1894) (Streptococcus sp.) | MIC Streptococcus pneumoniae (GC 4565) (Streptococcus sp.) | MIC Streptococcus pneumoniae (ATCC 6301) (Streptococcus sp.; inoculum 5×10^5 CFU/mL, strain ATCC 6301) | MIC Streptococcus pneumoniae (GC 1894) (Streptococcus sp.; inoculum 5×10^5 CFU/mL, strain GC 1894) | MIC Streptococcus pneumoniae (GC 4565) (Streptococcus sp.; inoculum 5×10^5 CFU/mL, strain GC 4565)
2 µg/mL: MIC Coagulase Negative Staphylococcus (GC 4547) (Staphylococcus sp.) | MIC Coagulase Negative Staphylococcus (GC 4551) (Staphylococcus sp.) | MIC Staphylococcus aureus (ATCC 29213) (Staphylococcus sp.) | MIC Staphylococcus aureus (GC 1131) (Staphylococcus sp.) | MIC Staphylococcus aureus (GC 3053) (Staphylococcus sp.) | MIC Staphylococcus aureus (GC 4542) (Staphylococcus sp.) | MIC Staphylococcus aureus (GC 4544) (Staphylococcus sp.) | MIC Staphylococcus aureus (GC 4545) (Staphylococcus sp.) | MIC Staphylococcus aureus-SMITH (GC 4543) (Staphylococcus sp.) | MIC Staphylococcus aureus (ATCC 29213) (Staphylococcus sp.; strain ATCC 29213) | MIC Staphylococcus aureus (GC 1131) (Staphylococcus sp.; strain GC 1131) | MIC Staphylococcus aureus (GC 3053) (Staphylococcus sp.; strain GC 3053) | MIC Staphylococcus aureus (GC 4542) (Staphylococcus sp.; strain GC 4542) | MIC Staphylococcus aureus-SMITH (GC 4543) (Staphylococcus sp.; strain GC 4543) | MIC Staphylococcus aureus (GC 4544) (Staphylococcus sp.; strain GC 4544) | MIC Staphylococcus aureus (GC 4545) (Staphylococcus sp.; strain GC 4545) | MIC Coagulase Negative Staphylococcus (GC 4547) (Staphylococcus sp.; strain GC 4547) | MIC Coagulase Negative Staphylococcus (GC 4551) (Staphylococcus sp.; strain GC 4551) | MIC Enterococcus faecium (GC 4557) (Enterococcus sp.) | MIC Enterococcus faecium (GC 4557) (Enterococcus sp.; strain GC 4557)
>64 µg/mL: MIC Escherichia coli (ATCC 25922) (Escherichia coli) | MIC Escherichia coli (GC 4559) (Escherichia coli)
4 µg/mL: MIC Staphylococcus aureus (GC 4541) (Staphylococcus sp.) | MIC Staphylococcus aureus (GC 4541) (Staphylococcus sp.; strain GC 4541) | MIC Enterococcus avium (GC 4558) (Enterococcus sp.) | MIC Enterococcus faecalis (ATCC 29212) (Enterococcus sp.) | MIC Enterococcus faecalis (GC 2242) (Enterococcus sp.) | MIC Enterococcus faecalis (GC 2691) (Enterococcus sp.) | MIC Enterococcus faecalis (GC 3059) (Enterococcus sp.) | MIC Enterococcus faecalis (GC 4552) (Enterococcus sp.) | MIC Enterococcus faecalis (GC 4553) (Enterococcus sp.) | MIC Enterococcus faecalis (GC 4554) (Enterococcus sp.) | MIC Enterococcus faecalis (GC 6189) (Enterococcus sp.) | MIC Enterococcus faecium (GC 2243) (Enterococcus sp.) | MIC Enterococcus faecium (GC 4556) (Enterococcus sp.) | MIC Enterococcus faecalis (ATCC 29212) (Enterococcus sp.; strain ATCC 29212) | MIC Enterococcus faecium (GC 2243) (Enterococcus sp.; strain GC 2243) | MIC Enterococcus faecalis (GC 4552) (Enterococcus sp.; strain GC 4552) | MIC Enterococcus faecalis (GC 4553) (Enterococcus sp.; strain GC 4553) | MIC Enterococcus faecalis (GC 4554) (Enterococcus sp.; strain GC 4554) | MIC Enterococcus faecium (GC 4556) (Enterococcus sp.; strain GC 4556) | MIC Enterococcus avium (GC 4558) (Enterococcus sp.; strain GC 4558) | MIC Enterococcus faecalis (GC 6189) (Enterococcus sp.; strain GC 6189) | MIC Enterococcus faecalis (GC 2242) (Enterococcus sp.; inoculum 5×10^5 CFU/mL, strain GC 2242) | MIC Enterococcus faecalis (GC 2691) (Enterococcus sp.; inoculum 5×10^5 CFU/mL, strain GC 2691) | MIC Enterococcus faecalis (GC 3059) (Enterococcus sp.; inoculum 5×10^5 CFU/mL, strain GC 3059)
0.25 µg/mL: MIC Streptococcus agalactiae (GC 4564) (Streptococcus sp.) | MIC Streptococcus pyogenes (GC 4563) (Streptococcus sp.) | MIC Streptococcus pyogenes (GC 4563) (Streptococcus sp.; inoculum 5×10^5 CFU/mL, strain GC 4563) | MIC Streptococcus agalactiae (GC 4564) (Streptococcus sp.; inoculum 5×10^5 CFU/mL, strain GC 4564)
1 µg/mL: MIC Coagulase Negative Staphylococcus (GC 4548) (Staphylococcus sp.) | MIC Coagulase Negative Staphylococcus (GC 4549) (Staphylococcus sp.) | MIC Coagulase Negative Staphylococcus (GC 6257) (Staphylococcus sp.) | MIC Staphylococcus aureus (GC 3051) (Staphylococcus sp.) | MIC Staphylococcus haemolyticus (GC 4546) (Staphylococcus sp.) | MIC Staphylococcus aureus (GC 3051) (Staphylococcus sp.; strain GC 3051) | MIC Staphylococcus haemolyticus (GC 4546) (Staphylococcus sp.; strain GC 4546) | MIC Coagulase Negative Staphylococcus (GC 4548) (Staphylococcus sp.; strain GC 4548) | MIC Coagulase Negative Staphylococcus (GC 4549) (Staphylococcus sp.; strain GC 4549) | MIC Coagulase Negative Staphylococcus (GC 6257) (Staphylococcus sp.; strain GC 6257) | MIC Escherichia coli (GC 4560) (Escherichia coli)
